Patent US11707447B1
“Also recorded” adds a separate entry of the source.

Tests used:
[1] = In vitro metabolic stability / psilocin release, human AB serum; assay type: in vitro ADME; conditions: AB serum
Excerpt: A fundamental evaluation in drug development is the assessment of absorption, distribution, metabolism, excretion, and pharmacokinetics (ADME/PK) (Eddershaw et al., 2000, Drug Discovery Today 5(9): 409-414). […] Drug stability upon exposure to human liver microsomes and liver S9 cellular fractions is a common in vitro assay to approximate in vivo, liver-based drug metabolism (Richardson et al., 2016 Drug Metabolism Letters 10:83-90). First-pass metabolism is also often approximated in vitro using intestinal microsome and cellular S9 fractions (Hatley et al., 2017, Biopharmaceuticals & Drug Disposition, 38(2):155-160). Further, it is well known that human serum, and particularly circulating serum esterases can contribute to systemic drug metabolism (Williams, F M 1987, Pharmacology and Therapeutics, 34:99-109). Many pharmacological agents are classified as prodrugs, as they undergo metabolic transformation in vivo upon administration to release the active drug compound into the systemic compartment (Zawilska J B, et al. 2013, Pharmacological Reports, 65:1-14). Psilocybin, a serotonergic psychedelic agent, is well known prodrug that is metabolized into the psychoactive product, psilocin (Dinis-Oliveira, R J 2017, Drug Metabolism Reviews, 49(1):84-91). To evaluate the capacity of test molecules to similarly serve as prodrugs of psilocin, time-dependent, metabolic stability assays using human AB serum, human intestinal microsomes (HIM), human intestinal S9 fractions (HIS9), human liver microsomes (HLM), human liver S9 fractions (HLS9), human alkaline phosphatase, and porcine esterase were performed. […] Liquid chromatography coupled mass spectrometry (LC-MS) was employed to track the conversion of the test molecules into psilocin. All intestinal and liver fractions and NADPH RapidStart reagent was purchased from Sekisui/XenoTech. Human AB serum was purchased from Sigma. […] Supernatants were analyzed for the presence of candidate prodrugs (parent molecule) and psilocin (the predicted metabolite) using Orbitrap LC-MS (Thermo Scientific) using previously described methods (Menéndez-Perdomo et al., 2021, J. Mass Spectrom., 56: e4683). […] Assay concentrations (μM) of both parent ‘prodrug’ molecule and psilocin metabolite, as quantified through LC-MS using routine standard curve procedures, were plotted as functions of assay time (minutes). The metabolism rate (T1/2) was determined from the metabolism curve plot using the one phase decay feature of GraphPad PRISM software (Version 9.2.0). The quantity of parent prodrug at time zero was set as 100%. […]

[2] = Stability in enzyme-free control buffer; assay type: in vitro ADME; conditions: enzyme-free buffer pH 7.4
Excerpt: A fundamental evaluation in drug development is the assessment of absorption, distribution, metabolism, excretion, and pharmacokinetics (ADME/PK) (Eddershaw et al., 2000, Drug Discovery Today 5(9): 409-414). […] Drug stability upon exposure to human liver microsomes and liver S9 cellular fractions is a common in vitro assay to approximate in vivo, liver-based drug metabolism (Richardson et al., 2016 Drug Metabolism Letters 10:83-90). First-pass metabolism is also often approximated in vitro using intestinal microsome and cellular S9 fractions (Hatley et al., 2017, Biopharmaceuticals & Drug Disposition, 38(2):155-160). […] Supernatants were analyzed for the presence of candidate prodrugs (parent molecule) and psilocin (the predicted metabolite) using Orbitrap LC-MS (Thermo Scientific) using previously described methods (Menéndez-Perdomo et al., 2021, J. Mass Spectrom., 56: e4683). […] Assay concentrations (μM) of both parent ‘prodrug’ molecule and psilocin metabolite, as quantified through LC-MS using routine standard curve procedures, were plotted as functions of assay time (minutes). The metabolism rate (T1/2) was determined from the metabolism curve plot using the one phase decay feature of GraphPad PRISM software (Version 9.2.0). The quantity of parent prodrug at time zero was set as 100%.

[3] = Mouse pharmacokinetic (PK) evaluation of drug metabolism to psilocin; conditions: for Plasma concentration of psilocin: 24 h
[4] = in vitro; assay type: in vitro ADME, human
Excerpt: A fundamental evaluation in drug development is the assessment of absorption, distribution, metabolism, excretion, and pharmacokinetics (ADME/PK) (Eddershaw et al., 2000, Drug Discovery Today 5(9): 409-414). […] Drug stability upon exposure to human liver microsomes and liver S9 cellular fractions is a common in vitro assay to approximate in vivo, liver-based drug metabolism (Richardson et al., 2016 Drug Metabolism Letters 10:83-90). First-pass metabolism is also often approximated in vitro using intestinal microsome and cellular S9 fractions (Hatley et al., 2017, Biopharmaceuticals & Drug Disposition, 38(2):155-160). Further, it is well known that human serum, and particularly circulating serum esterases can contribute to systemic drug metabolism (Williams, F M 1987, Pharmacology and Therapeutics, 34:99-109). Many pharmacological agents are classified as prodrugs, as they undergo metabolic transformation in vivo upon administration to release the active drug compound into the systemic compartment (Zawilska J B, et al. 2013, Pharmacological Reports, 65:1-14). Psilocybin, a serotonergic psychedelic agent, is well known prodrug that is metabolized into the psychoactive product, psilocin (Dinis-Oliveira, R J 2017, Drug Metabolism Reviews, 49(1):84-91). To evaluate the capacity of test molecules to similarly serve as prodrugs of psilocin, time-dependent, metabolic stability assays using human AB serum, human intestinal microsomes (HIM), human intestinal S9 fractions (HIS9), human liver microsomes (HLM), human liver S9 fractions (HLS9), human alkaline phosphatase, and porcine esterase were performed. […] Liquid chromatography coupled mass spectrometry (LC-MS) was employed to track the conversion of the test molecules into psilocin. All intestinal and liver fractions and NADPH RapidStart reagent was purchased from Sekisui/XenoTech. Human AB serum was purchased from Sigma. For intestine and liver metabolism assays, 2.5 μM candidate compounds were incubated in 400 μg/ml of each cellular fraction (HLM, HLS9, HIM, or HIS9) in 50 mM potassium phosphate buffer (pH 7.4) containing 3 mM MgCl2 and 1 mM EDTA supplemented with NADPH RapidStart at 37° C. Samples were taken at the start of the assay, and at every 20 minutes for 2 hours. Time-point samples were precipitated with 1:1 volume of acetonitrile to quench the reaction before centrifugation at 4000×g for 20 minutes. Supernatants were analyzed for the presence of candidate prodrugs (parent molecule) and psilocin (the predicted metabolite) using Orbitrap LC-MS (Thermo Scientific) using previously described methods (Menéndez-Perdomo et al., 2021, J. Mass Spectrom., 56: e4683). The serum assays were carried out in 10% human AB serum in 50 mM potassium phosphate buffer (pH 7.4) containing 3 mM MgCl2 and 1 mM EDTA. Bovine alkaline phosphatase assays were carried out using one unit of purified enzyme in 50 mM potassium phosphate buffer (pH 7.4) containing 3 mM MgCl2 and 1 mM EDTA. Porcine esterase assays were carried out using one unit of purified enzyme in 50 mM potassium phosphate buffer (pH 7.4) containing 3 mM MgCl2 and 1 mM EDTA. Assay concentrations (μM) of both parent ‘prodrug’ molecule and psilocin metabolite, as quantified through LC-MS using routine standard curve procedures, were plotted as functions of assay time (minutes). The metabolism rate (T1/2) was determined from the metabolism curve plot using the one phase decay feature of GraphPad PRISM software (Version 9.2.0). The quantity of parent prodrug at time zero was set as 100%.
Positive controls were first tested to ensure that assays were functioning properly.

[5] = target: T1, 5-HT1A receptor (Homo sapiens, UniProt P08908); assay: cAMP-Glo assay in +5-HT1A / -5-HT1A CHO-K1 cells; assay type: cell-based; conditions: forskolin-stimulated +5-HT1A vs -5-HT1A cells, increasing ligand
T1 construct: host or cells: CHO-K1 (co-expressing Ga15)
T1 sequence (P08908 1-422): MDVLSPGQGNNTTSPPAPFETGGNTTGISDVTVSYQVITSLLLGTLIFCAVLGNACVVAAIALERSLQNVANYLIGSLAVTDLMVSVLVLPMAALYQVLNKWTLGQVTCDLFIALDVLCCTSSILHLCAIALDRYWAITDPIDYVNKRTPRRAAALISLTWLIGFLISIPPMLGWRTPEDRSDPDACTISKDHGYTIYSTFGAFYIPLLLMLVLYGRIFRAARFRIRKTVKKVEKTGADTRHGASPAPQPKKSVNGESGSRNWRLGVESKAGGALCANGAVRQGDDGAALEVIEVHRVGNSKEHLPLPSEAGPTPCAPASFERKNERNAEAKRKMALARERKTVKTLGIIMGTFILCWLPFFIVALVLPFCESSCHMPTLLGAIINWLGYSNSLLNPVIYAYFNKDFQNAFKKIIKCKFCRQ

[6] = target: 5-HT2A receptor (Homo sapiens, UniProt P28223); assay: [3H]ketanserin competition radioligand binding assay (SPA); conditions: control ligands
Chain of 5-HT2A receptor (P28223 whole entry): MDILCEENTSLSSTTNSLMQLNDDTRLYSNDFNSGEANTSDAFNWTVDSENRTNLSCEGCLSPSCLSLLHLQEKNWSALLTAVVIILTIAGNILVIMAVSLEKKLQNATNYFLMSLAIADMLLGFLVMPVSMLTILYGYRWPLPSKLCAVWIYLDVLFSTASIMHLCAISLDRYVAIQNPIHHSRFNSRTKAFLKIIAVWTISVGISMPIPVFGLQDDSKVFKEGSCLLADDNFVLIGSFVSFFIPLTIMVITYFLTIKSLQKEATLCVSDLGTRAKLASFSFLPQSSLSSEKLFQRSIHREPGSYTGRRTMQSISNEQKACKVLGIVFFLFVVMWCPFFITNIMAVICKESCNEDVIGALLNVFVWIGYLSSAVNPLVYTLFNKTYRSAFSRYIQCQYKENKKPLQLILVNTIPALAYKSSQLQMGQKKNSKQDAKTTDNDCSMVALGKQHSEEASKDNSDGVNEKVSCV

For `CN(C)CCc1c[nH]c2cccc(OP(=O)(O)O)c12` [psilocybin, reference compound], the “metabolic stability / conversion to psilocin (in words)” value (shortened to “metabolic stability / conversion”) [1] was “stable in serum with no conversion to psilocin”, the “stability in assay buffer (in words)” value [2] was “stability of psilocybin was confirmed in assay buffer” and the “Plasma concentration of administered (parent) compound” value (“Plasma concentration of administered” below) ([3]; 1 mg/kg i.v., 0.5 h, individual mice) was “No Peak”. For the same compound, the “Plasma concentration of administered” value ([3]; 1 mg/kg i.v., 1 h, individual mice) was “No Peak”, the “Plasma concentration of administered” value ([3]; 1 mg/kg i.v., 2 h, individual mice) was “No Peak” and the “Plasma concentration of administered” value ([3]; 1 mg/kg i.v., 4 h, individual mice) was “No Peak”. The “Plasma concentration of administered” value ([3]; 1 mg/kg i.v., 6 h, individual mice) was “No Peak”, the “Plasma concentration of administered” value ([3]; 1 mg/kg i.v., 8 h, individual mice) was “No Peak” and the “tmax (parent compound in plasma)” value ([3]; 1 mg/kg i.v., individual mice) was 5 min. The “tmax (parent compound in plasma)” value ([3]; 1 mg/kg i.v., mean ± SD) was 5 ± 0 min, the “Plasma concentration of psilocin” value ([3]; 1.56 mg/kg oral of administered compound, individual mice) was “BLQ” and the “Plasma concentration of psilocin” value ([3]; 3 mg/kg oral of administered compound, individual mice) was “BLQ”. For the same compound, the concentration at 5 min ([3]; male, C57Bl/6, mouse, plasma, intravenous, 1 mg/kg, Plasma concentration of administered (parent) compound, 1 mg/kg i.v., 5 min, mean ± SD) was 144 ± 167 ng/mL, the concentration at 0.25 h ([3]; male, C57Bl/6, mouse, plasma, intravenous, 1 mg/kg, Plasma concentration of administered (parent) compound, 1 mg/kg i.v., 0.25 h, mean ± SD) was 13.2 ± 12.5 ng/mL and the concentration at 0.5 h ([3]; male, C57Bl/6, mouse, plasma, intravenous, 1 mg/kg, Plasma concentration of administered (parent) compound, 1 mg/kg i.v., 0.5 h, mean ± SD) was 4.28 ng/mL. It also gave a concentration at 1 h ([3]; male, C57Bl/6, mouse, plasma, intravenous, 1 mg/kg, Plasma concentration of administered (parent) compound, 1 mg/kg i.v., 1 h, individual mice) of 1.21 ng/mL, a concentration at 1 h ([3]; male, C57Bl/6, mouse, plasma, intravenous, 1 mg/kg, Plasma concentration of administered (parent) compound, 1 mg/kg i.v., 1 h, mean) of 1.21 ng/mL and a concentration at 8 h ([3]; male, C57Bl/6, mouse, plasma, intravenous, 1 mg/kg, Plasma concentration of administered (parent) compound, 1 mg/kg i.v., 8 h, individual mice) of 2.54 ng/mL. For the same compound, the Cmax ([3]; male, C57Bl/6, mouse, plasma, iv, 1 mg/kg, Cmax (parent compound in plasma), 1 mg/kg i.v., mean ± SD) was 144 ± 167 ng/mL, the “detectability of administered compound in plasma (in words)” value ([3]; oral vs i.v. dosing) was “only detectable in i.v. administered animals; also recorded: not detectable in orally administered animals at any dose” and the “metabolic stability / conversion” value ([4]; HLM) was “stable in liver fractions with no conversion to psilocin”. For the same compound, the “metabolic stability / conversion” value ([4]; HLS9) was “stable in liver fractions with no conversion to psilocin”.

In the case of `NCCc1c[nH]c2ccc(O)cc12` [serotonin], the “cAMP level / 5-HT1A receptor modulation (in words)” value [5] is reported as “reduction in cAMP levels”.

With `N[C@@H](Cc1c[nH]c2ccccc12)C(=O)O` [tryptophan] the “5-HT2A competition binding (in words)” value [6] was “negative control (no binding)” and the “cAMP level / 5-HT1A receptor modulation (in words)” value [5] was “no reduction in cellular cAMP levels”.
